Data: patent US20260209215A1, “GLYCINE DERIVATIVES WITH P2X4 RECEPTOR-BLOCKING ACTIVITY AS DIAGNOSTICS AND FOR THE TREATMENT OF PAIN, INFLAMMATION, CANCER, AND OTHER P2X4 RECEPTOR-RELATED DISEASES” (RHEINISCHE-FRIEDRICH-WILHELMS-UNIVERSITÄT BONN, priority 2022, published 2026)

Target: T1, P2X4 receptor (Homo sapiens, UniProt Q99571)
T1 construct: expressed in transfected cells; host or cells: 1321N1 astrocytoma cells, retroviral vector pQCXIN, G418 selection, monoclones
T1 sequence (Q99571 1-388): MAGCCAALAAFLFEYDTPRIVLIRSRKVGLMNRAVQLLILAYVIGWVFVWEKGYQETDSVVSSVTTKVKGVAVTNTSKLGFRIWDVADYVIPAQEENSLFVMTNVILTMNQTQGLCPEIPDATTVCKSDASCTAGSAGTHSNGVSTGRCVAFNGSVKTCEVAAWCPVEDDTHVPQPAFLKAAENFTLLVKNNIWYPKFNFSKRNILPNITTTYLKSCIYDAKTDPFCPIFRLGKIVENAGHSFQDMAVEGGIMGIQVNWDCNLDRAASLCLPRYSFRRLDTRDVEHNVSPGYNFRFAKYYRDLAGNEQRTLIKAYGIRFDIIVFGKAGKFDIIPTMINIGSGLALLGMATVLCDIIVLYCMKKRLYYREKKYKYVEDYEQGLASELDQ
Experiment: Measurement of Ca2+ influx in transfected 1321N1 astrocytoma cells (P2X4 inhibitory potency)
Type: cell-based
Conditions: agonist-mediated Ca2+ influx, FLUO-4, 1321N1 astrocytoma cells; antagonists added 30 min before agonist
Text: The rat, mouse, and human P2X4 DNA, respectively, were cloned into the retroviral vector pQCXIN. 1321N1 Astrocytoma cells were transfected with the DNA using a retroviral system as described previously. In brief, GP+envAM12 packaging cells were first transiently co-transfected with a retroviral vector to generate the retrovirus and with a vesicular stomatitis virus G protein (VSV-G) to pseudotype the virus and to increase their infection efficiency. The viruses containing the rat, mouse or human P2X4 receptor sequence were then used to create a stable astrocytoma cell line. P2X4 receptor-expressing cells were selected with G418 ([…]).
The selection of monoclones for rat and human P2X4 receptors was performed using the limited dilution method by plating the cells at very low cell densities (1 cell clone per well in 96-well plates). Cells were counted, and then several dilutions were made to obtain a concentration of […]. We subsequently added 100 µL of the diluted cell suspension into each well expecting to obtain on average 1 cell per well. After a few days the wells that contained single clones were labeled and transferred into 24 well plates. More than 20 clones were selected for each cell line and characterized in calcium influx assay.
Measurement of Ca^2+ influx in transfected 1321N1 astrocytoma cells
P2X receptor function was determined on the basis of agonist-mediated increases in cytosolic Ca^2+ concentration. The fluorescent Ca^2+chelating dye FLUO-4 was used as an indicator of the relative levels of intracellular Ca^2+ in a 96-well format using a fluorescence imaging plate reader (Novostar, BMG, Germany). Cells were grown to confluence in 96-well black-walled tissue culture plates and loaded with FLUO-4 AM ([…]) in Hank's balanced salt solution (HBSS, containing 10 mM HEPES, pH 7.3, and 1% Pluronic® F127) for 1 h at 23° C. After incubation, the loaded cells were washed with the same buffer to remove extracellular FLUO-4 AM. Compound solutions were prepared in HBSS (containing 20 mM HEPES, pH 7.3) or DMSO depending on their solubility. […] Fluorescence intensity was measured at 520 nm for 30 s at 0.4 s intervals. Buffer or test compounds were injected sequentially into separate wells using the automatic pipetting device. At least three independent experiments were performed in triplicate or duplicate. Antagonists were added 30 min before the addition of agonists. The assays were performed in a final volume of 200 μL. Compounds were tested at 7-8 different concentrations spanning three orders of magnitude of concentrations. Statistical significances were calculated using the unpaired two-tailed t-test.

| IC50 [nM] | Structure (SMILES) |
| --- | --- |
| 0.1 to 19 | CCc1nsc(-c2ccc(F)c(NCC(=O)N3CCc4c(N5CCC(O)C5)cccc43)c2)n1 (stereo not shown) [Example 71, 2-((5-(3-ethyl-1,2,4-thiadiazol-5-yl)-2-fluorophenyl)amino)-1-(4-(3-hydroxypyrrolidin-1-yl)indolin-1-yl)ethan-1-one] |
| 20 to 39 | Cc1nsc(-c2ccc(C)c(NCC(=O)N3CCc4c3cccc4-n3ccnc3)c2)n1 [Example 48, 1-(4-(1H-imidazol-1-yl)indolin-1-yl)-2-((2-methyl-5-(3-methyl-1,2,4-thiadiazol-5-yl)phenyl)amino)ethan-1-one] |
| 20 to 39 | CCc1nsc(-c2ccc(C)c(NCC(=O)N3CCc4c(C(=O)N5CCN(C)CC5)cccc43)c2)n1 [Example 45, 2-((5-(3-ethyl-1,2,4-thiadiazol-5-yl)-2-methylphenyl)amino)-1-(4-(4-methylpiperazine-1-carbonyl)indolin-1-yl) ethan-1-one] |
| 70 to 99 | COc1cccc2c1CCN2C(=O)CNc1cc(-c2nc(C)ns2)cc(F)c1OC [Example 8, 2-((3-fluoro-2-methoxy-5-(3-methyl-1,2,4-thiadiazol-5-yl)phenyl)amino)-1-(4-methoxyindolin-1-yl) ethan-1-one] |
| 0.1 to 19 | COc1cccc2c1CCN2C(=O)CNc1cc(-c2nc(C)ns2)ccc1C [Example 1, 1-(4-methoxyindolin-1-yl)-2-((2-methyl-5-(3-methyl-1,2,4-thiadiazol-5-yl)phenyl)-amino)ethan-1-one] |
| 20 to 39 | COc1ccc(-c2nc(C)ns2)cc1NCC(=O)N1CCc2c(OC)cccc21 [Example 4, 2-((2-methoxy-5-(3-methyl-1,2,4-thiadiazol-5-yl)phenyl)-amino)-1-(4-methoxyindolin-1-yl)ethan-1-one] |
| 40 to 69 | COc1ccc(-c2ccc(C)cn2)cc1NCC(=O)N1CCc2cc(F)c(F)cc21 [Example 118, 1-(5,6-difluoroindolin-1-yl)-2-((2-methoxy-5-(5-methylpyridin-2-yl)phenyl)amino)ethan-1-one] |
| 0.1 to 19 | Cc1nsc(-c2ccc(C)c(NCC(=O)N3CCc4c3cccc4N3C(=O)CC(N)C3=O)c2)n1 (stereo not shown) [Example 80, 3-amino-1-(1-((2-methyl-5-(3-methyl-1,2,4-thiadiazol-5-yl)phenyl)glycyl)indolin-4-yl) pyrrolidine-2,5-dione] |
| > 100 | Cc1nsc(-c2ccc(C)c(NCC(=O)N3CC(CCO)c4ccccc43)c2)n1 (stereo not shown) [Example 58, 1-(3-(2-hydroxyethyl)indolin-1-yl)-2-((2-methyl-5-(3-methyl-1,2,4-thiadiazol-5-yl)phenyl)amino)ethan-1-one] |
| 0.1 to 19 | Cc1nsc(-c2ccc(C)c(NCC(=O)N3CCc4c3cccc4C(C)(C)O)c2)n1 [Example 22, 1-(4-(2-hydroxypropan-2-yl)indolin-1-yl)-2-((2-methyl-5-(3-methyl-1,2,4-thiadiazol-5-yl)phenyl)amino)ethan-1-one] |
| 0.1 to 19 | Cc1ccc(-c2nc(C(F)F)ns2)cc1NCC(=O)N1CCc2c1cccc2C(C)(O)CO (stereo not shown) [Example 61, 2-((5-(3-(difluoromethyl)-1,2,4-thiadiazol-5-yl)-2-methylphenyl)amino)-1-(4-(1,2-dihydroxypropan-2-yl)indolin-1-yl)ethan-1-one] |
| 20 to 39 | COc1cccc2c1CCN2C(=O)CNc1cc(-c2nc(C)ns2)ccc1F [Example 34, 2-((2-fluoro-5-(3-methyl-1,2,4-thiadiazol-5-yl)phenyl)amino)-1-(4-methoxyindolin-1-yl)ethan-1-one] |
| 20 to 39 | CCc1noc(-c2ccc(OC)c(NCC(=O)N3CCc4nc(OC)ccc43)c2)n1 [Example 11, 2-((5-(3-ethyl-1,2,4-oxadiazol-5-yl)-2-methoxyphenyl)amino)-1-(5-methoxy-2,3-dihydro-1H-pyrrolo[3,2-b]pyridin-1-yl)ethan-1-one] |
| 20 to 39 | Cc1nsc(-c2ccc(C)c(NCC(=O)N3CCc4c(NCC(C)(C)O)cccc43)c2)n1 [Example 44, 1-(4-((2-hydroxy-2-methylpropyl)amino)indolin-1-yl)-2-((2-methyl-5-(3-methyl-1,2,4-thiadiazol-5-yl)phenyl)-amino)ethan-1-one] |
| 0.1 to 19 | CCc1noc(-c2ccc(OC)c(NCC(=O)c3cn(C)c4cc(OC)c(F)cc34)c2)n1 [Example 98, 2-((5-(3-ethyl-1,2,4-oxadiazol-5-yl)-2-methoxyphenyl)amino)-1-(5-fluoro-6-methoxy-1-methyl-1H-indol-3-yl) ethan-1-one] |
| 0.1 to 19 | C#Cc1nsc(-c2ccc(C)c(NCC(=O)N3CCc4c(OC)cccc43)c2)n1 [Example 15, 2-((5-(3-ethynyl-1,2,4-thiadiazol-5-yl)-2-methylphenyl)amino)-1-(4-methoxyindolin-1-yl)ethan-1-one] |
| 40 to 69 | Cc1nsc(-c2ccc(C)c(NCC(=O)N3CCc4c3cccc4S(N)(=O)=O)c2)n1 [Example 51, 1-((2-methyl-5-(3-methyl-1,2,4-thiadiazol-5-yl)phenyl)glycyl)-indoline-4-sulfonamide] |
| 0.1 to 19 | C=Cc1nsc(-c2ccc(C)c(NCC(=O)N3CCc4c(OCCOCCO)cccc43)c2)n1 [Example 18, 1-(4-(2-(2-hydroxyethoxy)ethoxy)indolin-1-yl)-2-((2-methyl-5-(3-vinyl-1,2,4-thiadiazol-5-yl)phenyl)amino) ethan-1-one] |
| > 100 | CCc1noc(-c2ccc(OC)c(NCC(=O)N3CCc4ccc(C(F)(F)F)cc43)c2)n1 [Example 7, 2-(5-(3-ethyl-1,2,4-oxadiazol-5-yl)-2-methoxyphenylamino)-1-(6-(trifluoromethyl)indolin-1-yl)ethanone] |
| 20 to 39 | CCc1nsc(-c2ccc(C)c(NCC(=O)N3CCc4c(N5CC(O)C5)cccc43)c2)n1 [Example 66, 2-((5-(3-ethyl-1,2,4-thiadiazol-5-yl)-2-methylphenyl)amino)-1-(4-(3-hydroxyazetidin-1-yl)indolin-1-yl)ethan-1-one] |
| 20 to 39 | CCn1nnc(-c2ccc(OC)c(NCC(=O)N3CCc4c(OC)cccc43)c2)n1 [Example 5, 2-((5-(2-ethyl-2H-tetrazol-5-yl)-2-methoxyphenyl)amino)-1-(4-methoxyindolin-1-yl)ethan-1-one] |
| 20 to 39 | Cc1nsc(-c2ccc(C)c(NCC(=O)c3cn4c5c(cccc35)CCC4)c2)n1 [Example 103, 1-(5,6-dihydro-4H-pyrrolo[3,2,1-ij]quinolin-1-yl)-2-((2-methyl-5-(3-methyl-1,2,4-thiadiazol-5-yl)phenyl)amino)ethan-1-one] |
| 20 to 39 | Cc1nsc(-c2ccc(C)c(NCC(=O)c3c[nH]c4ncccc34)c2)n1 [Example 100, 2-((2-methyl-5-(3-methyl-1,2,4-thiadiazol-5-yl)phenyl)amino)-1-(1H-pyrrolo [2,3-b]pyridin-3-yl) ethan-1-one] |
| 70 to 99 | CCc1noc(-c2cc(NCC(=O)c3c[nH]c4cc(OC)c(Br)cc34)c(OC)cc2Br)n1 [Example 108, 2-(4-bromo-5-(3-ethyl-1,2,4-oxadiazol-5-yl)-2-methoxyphenylamino)-1-(5-bromo-6-methoxy-1H-indol-3-yl) ethanone] |

| Structure (SMILES) | IC50 [nM] |
| --- | --- |
| Cc1nsc(-c2ccc(C)c(NCC(=O)N3CCc4c(OCCC(C)(C)O)cccc43)c2)n1 [Example 30, 1-(4-(3-hydroxy-3-methylbutoxy)indolin-1-yl)-2-((2-methyl-5-(3-methyl-1,2,4-thiadiazol-5-yl)phenyl)amino)ethan-1-one] | 0.1 to 19 |
